Measured values reported in ChEMBL document CHEMBL1201862, “PubChem BioAssay data set” (2004).
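Following 48 hours of exposure in 96-well plates, responses at five concentrations were used to interpolate endpoints linearly. GI50 is the concentration that inhibits growth by half.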 Calls of active or inactive are those of the source. Rule as the data show it: active = GI50 up to about 1.1 µM and inactive = higher.

How the values were obtained:
Assay in all cases: DTP human tumour cell line panel, 48 h
[1] = test system: 786-0
[2] = test system: A498
[3] = test system: A549
[4] = test system: ACHN
[5] = test system: BT-549
[6] = test system: CAKI-1
[7] = test system: CCRF-CEM
[8] = test system: COLO 205
[9] = test system: DU-145
[10] = test system: EKVX
[11] = test system: HCC 2998
[12] = test system: HCT-116
[13] = test system: HCT-15
[14] = test system: HL-60
[15] = test system: HOP-62
[16] = test system: HT-29
[17] = test system: Hs-578T
[18] = test system: IGROV-1
[19] = test system: K562
[20] = test system: KM12
[21] = test system: LOX IMVI
[22] = test system: M14
[23] = test system: MCF7
[24] = test system: MDA-MB-231
[25] = test system: MDA-MB-435
[26] = test system: MDA-N
[27] = test system: MOLT-4
[28] = test system: Malme-3M
[29] = test system: NCI-H226
[30] = test system: NCI-H23
[31] = test system: NCI-H460
[32] = test system: NCI-H522
[33] = test system: NCI/ADR-RES
[34] = test system: OVCAR-3
[35] = test system: OVCAR-4
[36] = test system: OVCAR-5
[37] = test system: OVCAR-8
[38] = test system: PC-3
[39] = test system: RPMI-8226
[40] = test system: RXF 393
[41] = test system: SF-268
[42] = test system: SF-295
[43] = test system: SF-539
[44] = test system: SK-MEL-28
[45] = test system: SK-MEL-2
[46] = test system: SK-MEL-5
[47] = test system: SK-OV-3
[48] = test system: SN12C
[49] = test system: SNB-19
[50] = test system: SNB-75
[51] = test system: SR
[52] = test system: SW-620
[53] = test system: T47D
[54] = test system: TK-10
[55] = test system: U-251
[56] = test system: UACC-257
[57] = test system: UO-31
[58] = test system: HOP-92
[59] = test system: UACC-62

Measured: GI50

O=C(O)c1cc2c(cc1CC(Cc1ccccc1)C(=O)O)CCC2 (stereo not drawn)
> 100 µM: [13]
inactive: [1] > 100 µM | [2] > 100 µM | [3] > 100 µM | [4] > 100 µM | [5] > 100 µM | [6] > 100 µM | [7] > 100 µM | [8] > 100 µM | [9] > 100 µM | [10] > 100 µM | [11] > 100 µM | [12] > 100 µM | [14] > 100 µM | [15] > 100 µM | [16] > 100 µM | [17] > 100 µM | [18] > 100 µM | [19] > 100 µM | [20] > 100 µM | [21] > 100 µM | [22] > 100 µM | [23] > 100 µM | [24] > 100 µM | [25] > 100 µM | [26] > 100 µM | [27] > 100 µM | [28] > 100 µM | [29] > 100 µM | [30] > 100 µM | [31] > 100 µM | [32] > 100 µM | [33] > 100 µM | [34] > 100 µM | [35] > 100 µM | [36] > 100 µM | [37] > 100 µM | [38] > 100 µM | [39] > 100 µM | [40] > 100 µM | [41] > 100 µM | [42] > 100 µM | [43] > 100 µM | [44] > 100 µM | [45] > 100 µM | [46] > 100 µM | [47] > 100 µM | [48] > 100 µM | [49] > 100 µM | [50] > 100 µM | [51] > 100 µM | [52] > 100 µM | [53] > 100 µM | [54] > 100 µM | [55] > 100 µM | [56] > 100 µM | [57] > 100 µM

COc1ccc(OC)c(Cc2cnc3nc(N)nc(N)c3c2C)c1 [PIRITREXIM ISETHIONATE]
0.0149 µM: [13]
active: [1] < 0.0497 µM | [3] < 0.01 µM | [4] < 0.01 µM | [6] 0.0456 µM | [7] < 0.0198 µM | [9] 0.284 µM | [11] 0.258 µM | [12] < 0.0112 µM | [14] < 0.01 µM | [15] 0.188 µM | [58] 0.752 µM | [16] < 0.0168 µM | [18] < 0.0111 µM | [19] < 0.01 µM | [20] 0.243 µM | [21] < 0.0142 µM | [22] < 0.0201 µM | [23] 0.634 µM | [25] < 0.0435 µM | [26] < 0.018 µM | [27] < 0.0171 µM | [30] 0.0617 µM | [31] < 0.01 µM | [32] 0.204 µM | [33] 0.989 µM | [34] 0.533 µM | [37] < 0.0234 µM | [38] 0.0353 µM | [39] 0.173 µM | [41] 0.0957 µM | [42] 0.0592 µM | [43] 0.291 µM | [45] 0.986 µM | [46] 0.0955 µM | [48] 0.352 µM | [49] 0.236 µM | [51] 0.03 µM | [52] < 0.0231 µM | [59] 0.853 µM | [57] 0.24 µM
inactive: [5] 13.4 µM | [8] 12.9 µM | [10] 19.5 µM | [17] 15.1 µM | [24] 15.3 µM | [29] 2.19 µM | [35] 13.2 µM | [36] 16.1 µM | [40] 2.06 µM | [44] 1.25 µM | [47] 11.3 µM | [50] 2.1 µM | [53] 11.1 µM | [54] 13.5 µM | [56] 13.9 µM
